From PubChem BioAssay AID330 (DTP/NCI, 2004)
Inconclusive results and toxic doses are left out.

Test system: P388 leukemia ip, CD2F1 mice, survival T/C
Assay: NCI In Vivo Anticancer Drug Screen. Data for tumor model P388 Leukemia (intraperitoneal) in CD2F1 (CDF1) mice
Settings: endpoint: median survival time, higher = longer survival
In short: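 Mice carrying the transplanted tumor received test compound or vehicle. Survival was recorded in each group, and the value is the treated-group measurement divided by that of the vehicle-treated control group.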

[1] = dose: 50.0 mg/kg/injection, schedule: Q01DX009 (ip), vehicle: Klucel (hydroxypropylcellulose) (HPC)
[2] = dose: 100.0 mg/kg/injection, schedule: Q01DX009 (ip), vehicle: Klucel (hydroxypropylcellulose) (HPC)
[3] = dose: 200.0 mg/kg/injection, schedule: Q01DX009 (ip), vehicle: Klucel (hydroxypropylcellulose) (HPC)
[4] = dose: 100.0 mg/kg/injection, schedule: Q01DX001 (ip), vehicle: saline with Tween-80
[5] = dose: 200.0 mg/kg/injection, schedule: Q01DX001 (ip), vehicle: saline with Tween-80
[6] = dose: 400.0 mg/kg/injection, schedule: Q01DX001 (ip), vehicle: saline with Tween-80

[Cl][Pt+2][Cl].[NH-]c1cccc(F)c1.[NH-]c1cccc(F)c1
T/C (dose: 3.12 mg/kg/injection, schedule: Q01DX009 (ip), vehicle: Klucel (hydroxypropylcellulose) (HPC)): 158 % of control | T/C (dose: 6.25 mg/kg/injection, schedule: Q01DX009 (ip), vehicle: Klucel (hydroxypropylcellulose) (HPC)): 155 % of control

COCC(=O)O
T/C (dose: 50.0 mg/kg/injection, schedule: Q01DX009 (ip), vehicle: saline): 96 % of control | T/C (dose: 100.0 mg/kg/injection, schedule: Q01DX009 (ip), vehicle: saline): 93 % of control

CCCNC(=O)NNC(=O)c1ccc(NC(=O)NCCC)cc1
T/C [1]: 101 % of control | T/C [2]: 102 % of control | T/C [3]: 89 % of control

O=C(N/N=C/c1cc(Br)cc(Br)c1[O-])c1ccccc1.O=C(N/N=C/c1cc(Br)cc(Br)c1[O-])c1ccccc1.[Mn+2]
T/C [4]: 95 % of control | T/C [5]: 101 % of control | T/C [6]: 98 % of control

COC(=O)C[C@@]1(C(=O)OC)[C@H](C(=O)OC)[C@@H](C(=O)OC)N(C(C)=O)N1C
T/C (dose: 50.0 mg/kg/injection, schedule: Q01DX005 (ip), vehicle: Klucel (hydroxypropylcellulose) (HPC)): 105 % of control | T/C (dose: 100.0 mg/kg/injection, schedule: Q01DX005 (ip), vehicle: Klucel (hydroxypropylcellulose) (HPC)): 105 % of control | T/C (dose: 100.0 mg/kg/injection, schedule: Q04DX002 (ip), vehicle: Klucel (hydroxypropylcellulose) (HPC)): 104 % of control | T/C (dose: 200.0 mg/kg/injection, schedule: Q01DX005 (ip), vehicle: Klucel (hydroxypropylcellulose) (HPC)): 103 % of control | T/C (dose: 200.0 mg/kg/injection, schedule: Q04DX002 (ip), vehicle: Klucel (hydroxypropylcellulose) (HPC)): 95 % of control | T/C (dose: 400.0 mg/kg/injection, schedule: Q04DX002 (ip), vehicle: Klucel (hydroxypropylcellulose) (HPC)): 103 % of control

C/C=C1\CN2C3CC1C1(CN4c5c(OC)cc(OC)c(OC)c5C56CC7C(COC45O1)C1CC6N7C/C1=C/COC)C2CC31C(=O)Nc2c(OC)cc(OC)c(OC)c21 (stereo not given)
T/C (dose: 1.5 mg/kg/injection, schedule: Q01DX005 (ip), vehicle: Klucel (hydroxypropylcellulose) (HPC)): 97 % of control | T/C (dose: 3.0 mg/kg/injection, schedule: Q01DX005 (ip), vehicle: Klucel (hydroxypropylcellulose) (HPC)): 97 % of control | T/C (dose: 6.0 mg/kg/injection, schedule: Q01DX005 (ip), vehicle: Klucel (hydroxypropylcellulose) (HPC)): 108 % of control | T/C (dose: 12.0 mg/kg/injection, schedule: Q01DX005 (ip), vehicle: Klucel (hydroxypropylcellulose) (HPC)): 96 % of control

Clc1ccc(C=Nc2ccc(N=Cc3ccc(Cl)cc3)cc2)cc1
T/C [4]: 90 % of control | T/C [5]: 88 % of control | T/C [6]: 87 % of control

Nc1c(S(=O)(=O)O)cc(Nc2ccc(S(=O)(=O)O)c(Nc3nc(Cl)nc(Cl)n3)c2)c2c1C(=O)c1ccccc1C2=O
T/C (dose: 60.0 mg/kg/injection, schedule: Q01DX005 (ip), vehicle: saline): 118 % of control | T/C (dose: 120.0 mg/kg/injection, schedule: Q01DX005 (ip), vehicle: saline): 110 % of control | T/C (dose: 240.0 mg/kg/injection, schedule: Q01DX005 (ip), vehicle: saline): 110 % of control

O=C1OCC/C1=C1/Nc2ccccc2NC1=O
T/C (dose: 50.0 mg/kg/injection, schedule: Q01DX009 (ip), vehicle: saline with Tween-80): 89 % of control | T/C (dose: 200.0 mg/kg/injection, schedule: Q01DX009 (ip), vehicle: saline with Tween-80): 91 % of control

COc1ccc2c(O)c(S(=O)(=O)c3ccc(C)cc3)c(=O)oc2c1
T/C (dose: 60.0 mg/kg/injection, schedule: Q01DX005 (ip), vehicle: saline with Tween-80): 92 % of control | T/C (dose: 120.0 mg/kg/injection, schedule: Q01DX005 (ip), vehicle: saline with Tween-80): 104 % of control | T/C (dose: 240.0 mg/kg/injection, schedule: Q01DX005 (ip), vehicle: saline with Tween-80): 115 % of control

O=C1C=CC(=O)c2c(O)c3c(c(O)c21)C[C@H](O)[C@H](O)[C@@H]3O
T/C (dose: 1.56 mg/kg/injection, schedule: Q04DX003 (ip), vehicle: water): 98 % of control | T/C (dose: 3.13 mg/kg/injection, schedule: Q04DX003 (ip), vehicle: water): 92 % of control | T/C (dose: 6.25 mg/kg/injection, schedule: Q04DX003 (ip), vehicle: water): 102 % of control

c1ccc(-c2nc[nH]c2-c2ccccc2)cc1
T/C [1]: 96 % of control | T/C [2]: 97 % of control | T/C (dose: 100.0 mg/kg/injection, schedule: Q01DX009 (ip), vehicle: suspension in saline): 101 % of control | T/C [3]: 98 % of control | T/C (dose: 200.0 mg/kg/injection, schedule: Q01DX009 (ip), vehicle: suspension in saline): 96 % of control | T/C (dose: 400.0 mg/kg/injection, schedule: Q01DX009 (ip), vehicle: Klucel (hydroxypropylcellulose) (HPC)): 97 % of control
